Experiments:
[1] = biological target: T1, mPXR (Mus musculus, UniProt O54915); assay: GAL4 chimeric NHR cross-reactivity assay; format: cell-based; details: 10 μM
T1 construct: expressed in transfected cells; host or cells: CV-1 (monkey)
T1 sequence (O54915 143-430 limits assumed): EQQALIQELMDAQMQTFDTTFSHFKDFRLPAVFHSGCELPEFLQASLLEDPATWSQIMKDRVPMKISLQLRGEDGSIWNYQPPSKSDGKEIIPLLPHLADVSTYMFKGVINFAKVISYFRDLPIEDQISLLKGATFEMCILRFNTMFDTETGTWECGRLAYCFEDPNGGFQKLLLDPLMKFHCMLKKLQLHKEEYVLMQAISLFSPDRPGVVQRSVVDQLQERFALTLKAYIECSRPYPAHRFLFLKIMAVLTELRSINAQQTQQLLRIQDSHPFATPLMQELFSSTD
Description: (§1) FIGS. 3A-3E collectively show the results of ligand activation of CV-1 cells co-transfected with a luciferase reporter gene with a variety of receptor expression constructs. […] FIGS. 3C-3E show the results of CV-1 cells transiently transfected with the indicated reporter constructs, treated with either DMSO or 10 μM of the compounds fexaramine (3C), fexarine (3D), fexarene (3E). Reporter activity was normalized to the internal control and the data plotted as fold activation relative to untreated cells. All transfections contained CMX-βgal as an internal control.
(§2) The expression plasmids pCMX, pCMX-LacZ, pCMX-mFXRFL, pCMX-hRXRFL, pCMX-GALDBD-rFXRLBD and other pCUX-GALDBD-NR LBDs (hRXRα, hPPARαγδ, mPXR, hPXR, hLXRα, HTRβ, hRARβ, mCAR, mERR3 and hVDR) have been described elsewhere (Blumberg et al. (1998). SXR, a novel steroid and xenobiotic-sensing nuclear receptor. Genes Dev. 12(20), 3195-205). The reporter plasmids pMH2004-TK-luc, pTKECRE*6-luc, pTKER-8*2-luc and pMRP-2-luc also have been described elsewhere. The hPLTP-luc promoter was kindly provided by Dr Dennis Dowhan and the hIBABP-luc promoter was created from a plasmid provided by Dr Philippe Besnard.
(§3) Cell-based transcriptional activation assays using chimeric nuclear hormone receptor (NHR) constructs were established to measure the selectivity of the compounds to FXR relative to other NHRs (Forman et al. (1995). Identification of a nuclear receptor that is activated by farnesol metabolites. Cell 81, 687-693). These assays used fusion proteins with the yeast GAL4 DNA binding domain connected to the ligand-binding domain (LBD) of NHRs. These constructs were co-transfected with a thymidine kinase C minimal promoter reporter vector containing four copies of the GAL4 binding site. Titration experiments were then performed using the identified compounds. […] Addition of RXR had no effect on the activation potential of fexaramine, fexarine, fexarene in this assay.
(§4) No activity was observed on other chimeric NHR constructs including hRXRα, hPPARαγδ, mPXR, hPXR, hLXRα, hTRβ, hRARβ, mCAR, mERR3 and hVDR (see FIGS. 3C-3E).

[2] = system: FXR target genes SHP, MRP-2, BSEP and PLTP in HEPG2-FXR cells; assay: Northern blot of FXR target genes in HEPG2-FXR cells; format: cell-based, human; details: for induction of FXR target genes: SHP, MRP-2, BSEP, PLTP; for concentration of maximal activation of FXR target genes: overnight treatment
Description: 20 μg total RNA was isolated using Trizol (Invitrogen) and used for Northern blot analysis. cDNA probes for human PLTP, SHP, MRP-2 and BSEP were prepared and hybridized to the blot. Blots were normalized by 36B4 expression as shown.
HepG2 or HT29-derived cell lines were typically cultured in medium containing superstripped FBS for 24 hr before the addition of a ligand or DMSO (vehicle) for an additional 24-48 hr. Total RNA was isolated using TRIzol reagent and was resolved (10 μg/lane) on a 1% agarose, 2.2 M formaldehyde gel, transferred to a nylon membrane (Hybond N^+; Amersham Biosciences, Inc.), and cross-linked to the membrane with UV light.
cDNA probes were radiolabeled with [α-^32P]dCTP using the highprime labeling kit (Amersham Biosciences, Inc.). Membranes were hybridized using the QuikHyb hybridization solution (Stratagene, La Jolla, Calif.) according to the manufacturer's protocol. Blots were normalized for variations of RNA loading by hybridization to a control probe, either, 18 S ribosomal cDNA, or the ribosomal protein 36B4. The RNA levels were quantitated using a PhosphorImager (ImageQuant software; Molecular Dynamics, Inc., Sunnyvale, Calif.) in addition to being exposed to X-ray film.
Total RNA was isolated and the expression of the FXR target genes SHP, MRP-2, BSEP and PLTP was measured by Northern blot analysis (see FIG. 4E).
Differences in efficacy of target gene induction between the liver and the intestinal cell systems may reflect the ability of the liver hepatocytes to mount a xenobotic response or cell specific permeability to the identified compounds. Modification of the ligands to overcome these effects may be made in order to increase the efficacy of these drugs in liver cell systems.

[3] = biological target: T2, hPXR (Homo sapiens, UniProt O75469); assay: GAL4 chimeric NHR cross-reactivity assay; format: cell-based; details: 10 μM
T2 construct: expressed in transfected cells; host or cells: CV-1 (monkey)
T2 sequence (O75469 146-433 limits assumed): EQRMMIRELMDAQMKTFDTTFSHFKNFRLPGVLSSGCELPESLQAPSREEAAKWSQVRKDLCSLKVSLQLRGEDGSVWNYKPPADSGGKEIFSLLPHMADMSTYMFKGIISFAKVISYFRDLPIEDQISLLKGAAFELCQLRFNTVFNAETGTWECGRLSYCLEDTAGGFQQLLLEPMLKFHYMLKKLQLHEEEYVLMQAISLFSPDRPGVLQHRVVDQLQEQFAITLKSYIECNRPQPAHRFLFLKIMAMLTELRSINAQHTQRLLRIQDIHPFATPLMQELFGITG
Description: as §1, §2, §3, §4

activity on chimeric mPXR construct [1] | activity on chimeric hPXR construct [3] | SMILES | induction of FXR target genes [2] | concentration of maximal activation of FXR target genes [2] [µM]
No activity | – | COC(=O)/C=C/c1cccc(N(Cc2ccc(-c3ccc(N(C)C)cc3)cc2)C(=O)C2CCCCC2)c1 [fexaramine] | most effective inducer | 10
No activity | No activity | COC(=O)/C=C/c1cccc(N(Cc2ccc(/C=C/c3ccccc3)cc2)C(=O)C2CCCCC2)c1 [fexarene] | strong induction | 10
No activity | No activity | COC(=O)/C=C/c1cccc(N(Cc2ccc(-c3ccc4c(c3)OCO4)cc2)C(=O)C2CCCCC2)c1 [fexarine] | strong induction | 10
